Measurements: PubChem BioAssay (NCI)
Where “and” joins values, the source holds several entries; their conditions need not be identical. Equal entries are not always repeated.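 All cell lines were grown in 96-well plates and treated with compound for 48 hours. GI50: concentration for 50% inhibition of growth. TGI is the concentration that stops growth completely.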

Legend:
Assay in all cases: growth of human tumour cells (NCI), 48 h
A498 renal = system: A498 renal
ACHN renal = system: ACHN renal
COLO 205 colon = system: COLO 205 colon
HL-60(TB) leukemia = system: HL-60(TB) leukemia
HS 578T breast = system: HS 578T breast
NCI-H522 lung = system: NCI-H522 lung
OVCAR-5 ovarian = system: OVCAR-5 ovarian
OVCAR-8 ovarian = system: OVCAR-8 ovarian
SF-268 CNS = system: SF-268 CNS
SK-OV-3 ovarian = system: SK-OV-3 ovarian

Compound | GI50 (A498 renal) | TGI (A498 renal) | GI50 (ACHN renal) | TGI (ACHN renal) | GI50 (COLO 205 colon) | TGI (COLO 205 colon) | GI50 (HL-60(TB) leukemia) | TGI (HL-60(TB) leukemia) | GI50 (HS 578T breast) | TGI (HS 578T breast) | GI50 (NCI-H522 lung) | TGI (NCI-H522 lung) | GI50 (OVCAR-5 ovarian) | TGI (OVCAR-5 ovarian) | GI50 (OVCAR-8 ovarian) | TGI (OVCAR-8 ovarian) | GI50 (SF-268 CNS) | TGI (SF-268 CNS) | GI50 (SK-OV-3 ovarian) | TGI (SK-OV-3 ovarian)
Cc1nnc2n1N=C(c1ccc(Cl)cc1Cl)/C(=C/c1ccc(-c3ccc([N+](=O)[O-])cc3Cl)o1)S2 | 31.7 µM | 95.8 µM | 18.5 µM | 34.6 µM | 54.8 µM | > 100 µM | 25.1 µM | 62.9 µM | 20.2 µM | 50.7 µM | 20.9 µM | 44.9 µM | 16.5 µM | 30.9 µM | 18.1 µM | 41.5 µM | 24.3 µM | 66.7 µM | > 100 µM | > 100 µM
COc1cnc2c(c1)C(=O)c1c-2n(CCCNCCO)c(=O)c2ccncc12 | 0.772 µM | 2.62 µM | 0.553 µM | 9.93 µM | 0.82 µM | 9.05 µM | 2.74 µM | 11.4 µM | 2.32 µM | 10.7 µM | 0.607 µM | 7.26 µM | 2.74 µM | 20.5 µM | 0.876 µM | 23.7 µM | 1.28 µM | 9.26 µM | 3.94 µM | 61.3 µM
CN(C)CCCNc1ccc2nnn3c4ccc(O)cc4c(=O)c1c23 | – | 20.1 µM | – | 13.5 µM | – | 15.8 µM | – | > 46.9 µM | – | 13.3 µM | – | 19.8 µM | – | 23.2 µM | – | 17.6 µM | – | 16.3 µM | – | 23.4 µM
C=C(C)CC1(O[Si](C)(C)C)C(=O)C(OCC)=C1OCC (configuration not stated) | – | > 100 µM | – | > 100 µM | – | > 100 µM | – | > 100 µM | – | > 100 µM | – | > 100 µM | – | > 100 µM | – | > 100 µM | – | > 100 µM | – | > 100 µM
CC(C)=CCNc1nc(Cl)nc2nc[nH]c12 | – | > 100 µM | – | > 100 µM | – | > 100 µM | – | > 100 µM | – | > 100 µM | – | > 100 µM | – | > 100 µM | – | > 100 µM | – | > 100 µM | – | 46 µM
Cc1ccc(S(=O)(=O)Nn2c(O)c(C#N)c(-c3ccc(Cl)cc3)c(C#N)c2=O)cc1 | – | > 100 µM | – | > 100 µM | – | > 100 µM | – | > 100 µM | – | > 100 µM | – | > 100 µM | – | > 100 µM | – | > 100 µM | – | > 100 µM | – | > 100 µM
COC(=O)C1C(=O)N(C)C(=O)N2CCCC12 (configuration not stated) | – | > 100 µM | – | > 100 µM | – | > 100 µM | – | > 100 µM | – | > 100 µM | – | > 100 µM | – | > 100 µM | – | > 100 µM | – | > 100 µM | – | > 100 µM
NCC(O)CSCc1ccc(Cl)cc1 (configuration not stated) | – | > 100 µM | – | > 100 µM | – | > 100 µM | – | > 100 µM | – | > 100 µM | – | > 100 µM | – | > 100 µM | – | > 100 µM | – | > 100 µM | – | > 100 µM
O=C(Nc1ccccc1C(=O)NCc1ccccc1)/C(=C/c1ccccc1)NC(=O)c1ccccc1 | – | > 100 µM | – | > 100 µM | – | > 100 µM | – | > 100 µM | – | > 100 µM | – | > 100 µM | – | > 100 µM | – | > 100 µM | – | > 100 µM | – | > 100 µM
O=C(O)COc1cc(-c2ccccc2)nc2cc(F)ccc12 | – | > 100 µM | – | > 100 µM | – | > 100 µM | – | > 100 µM | – | > 100 µM | – | > 100 µM | – | > 100 µM | – | > 100 µM | – | > 100 µM | – | > 100 µM
O=C1OC[C@H]2[C@@H]1[C@H]1O[C@@H]2C2=C(CCC2)C1=O | – | > 100 µM | – | > 100 µM | – | > 100 µM | – | > 100 µM | – | > 100 µM | – | > 100 µM | – | > 100 µM | – | > 100 µM | – | > 100 µM | – | > 100 µM
CCOC(=O)c1cc(C)nc2c1c(=O)n(-c1ccccc1)c(=O)n2CCCCN1CCN(c2ccccc2)CC1 | – | > 100 µM | – | > 100 µM | – | > 100 µM | – | 49.1 µM | – | > 100 µM | – | > 100 µM | – | > 100 µM | – | > 100 µM | – | > 100 µM | – | > 100 µM
O=C1c2c(O)cccc2-c2nn(CCNCCO)c3ccc(NCCNCCO)c1c23 | – | 0.578 µM | – | 0.992 µM | – | 1.67 µM | – | 0.123 µM | – | 0.535 µM | – | 0.164 µM | – | 2.85 µM | – | 4.24 µM | – | 1.17 µM | – | 1.14 µM
C=CCOn1c(C=C)nc2ccc(C)cc21 | – | 43.6 µM | – | 59.6 µM | – | 26.9 µM | – | 22.2 µM | – | > 100 µM | – | 32.9 µM | – | 41.7 µM | – | > 100 µM | – | 80.2 µM | – | > 100 µM
C/C(=N\Nc1nc2cc(C(F)(F)F)ccc2s1)c1ccccn1 | – | 7.61 µM | – | 5.84 µM | – | 7.01 µM | – | 0.872 µM | – | 14.6 µM | – | 4.96 µM | – | 23.4 µM | – | 1.93 µM | – | 3.19 µM | – | 11.3 µM
CC(=O)NC1C(OCc2ccccc2)OC(CO)C(O)C1OC(C)C(=O)NC(C(=O)NC(CCC(=O)NCCCCNc1c2ccccc2nc2cccc([N+](=O)[O-])c12)C(N)=O)C(C)C (configuration not stated) | – | 4.74 µM | – | 9.18 µM | – | 11.6 µM | – | 6.77 µM | – | 42.6 µM | – | 0.511 µM | – | 19.8 µM | – | 9.62 µM | – | 13.1 µM | – | > 63.3 µM
O=c1[nH]n(Cc2ccccc2)c2ccc([N+](=O)[O-])cc12 | – | > 100 µM | – | > 100 µM | – | > 100 µM | – | > 100 µM | – | > 100 µM | – | > 100 µM | – | > 100 µM | – | > 100 µM | – | > 100 µM | – | > 100 µM
CC(Oc1ccccc1Cl)C(=O)NN1C(=O)CSC1c1ccccc1 (configuration not stated) | – | > 100 µM | – | > 100 µM | – | > 100 µM | – | 83.7 µM | – | > 100 µM | – | > 100 µM | – | > 100 µM | – | > 100 µM | – | > 100 µM | – | > 100 µM
Cc1ccccc1N=C(N)Nc1ccccc1C | – | > 100 µM | – | > 100 µM | – | > 100 µM | – | > 100 µM | – | > 100 µM | – | > 100 µM | – | > 100 µM | – | > 100 µM | – | > 100 µM | – | > 100 µM
C=C=C(CC(CC(=C)Br)(C(=O)OC)C(=O)OC)S(=O)(=O)c1ccccc1 | – | 14.7 µM | – | 6.83 µM | – | 3.26 µM | – | > 100 µM | – | 6.37 µM | – | 1.76 µM | – | 3.43 µM | – | 3.44 µM | – | 7.45 µM | – | 30.2 µM
CC1=C2C(=CO[C@H](C)[C@H]2C)C(=O)C(C(=O)O)=C1O | 32.7 µM | – | – | 46.7 µM | 22.1 µM | 77.3 µM and 45.8 µM | 25.3 µM | 59 µM and 25.7 µM | – | 96.4 µM | 18.5 µM | 36.4 µM and 34.4 µM | 29.5 µM | 73 µM and 128 µM | 19.8 µM | 43.3 µM and 35.2 µM | 22 µM | 59.2 µM and 38.2 µM | 28 µM | 88 µM and 150 µM
CC(C)(C)[Si](C)(C)OCc1cccc(OCCOc2cccc(CO[Si](C)(C)C(C)(C)C)c2[N+](=O)[O-])c1[N+](=O)[O-] | – | > 100 µM | – | > 100 µM | – | > 100 µM | – | > 100 µM | – | > 100 µM | – | > 100 µM | – | > 100 µM | – | > 100 µM | – | > 100 µM | – | > 100 µM
CN1CC2=C(NC(=S)NC2c2ccccc2)/C(=C/c2ccccc2)C1 (configuration not stated) | – | > 100 µM | – | > 100 µM | – | > 100 µM | – | > 10 µM | – | > 100 µM | – | > 100 µM | – | > 100 µM | – | > 10 µM | – | > 100 µM | – | 61.8 µM
COc1ccc2[nH]c(O)c(/C=c3/cc4c(c(-c5ccc(F)c(OC)c5)n3)=Nc3ccccc3-4)c2c1 | 4.42 µM | 19.2 µM | 3.01 µM | 9.86 µM | 2.56 µM | 5.87 µM | 14.4 µM | 35.1 µM | 1.87 µM | 5.04 µM | 1.81 µM | 4.14 µM | 3.56 µM | 10.8 µM | 3.22 µM | 11.8 µM | 3.68 µM | 18 µM | 11.3 µM | 26.2 µM
O=[N+]([O-])c1cccc(N=Nc2c(O)c(S(=O)(=O)O)cc3cc(S(=O)(=O)O)ccc23)c1 | – | > 100 µM | – | > 100 µM | – | > 100 µM | – | > 100 µM | – | > 100 µM | – | > 100 µM | – | > 100 µM | – | > 100 µM | – | > 100 µM | – | > 100 µM
NN=C(CC(O)(C(F)(F)Cl)C(F)(F)Cl)CC(O)(C(F)(F)Cl)C(F)(F)Cl | – | > 10 µM | – | > 10 µM | – | > 10 µM | – | > 10 µM | – | > 10 µM | – | > 10 µM | – | > 10 µM | – | > 10 µM | – | > 10 µM | – | > 10 µM
CCc1cc2c(c3c1CCCC3=O)CC1(Cc3ccc(C(=O)OC)cc3C1)C2 (configuration not stated) | – | > 100 µM | – | > 100 µM | – | > 100 µM | – | 55.4 µM | – | > 100 µM | – | > 100 µM | – | > 100 µM | – | > 100 µM | – | > 100 µM | – | > 100 µM
CC(=O)Nc1ccc(OC/C(N)=N/NC(=O)c2ccncc2)cc1 | – | > 100 µM | – | > 100 µM | – | > 100 µM | – | > 100 µM | – | > 100 µM | – | > 100 µM | – | > 100 µM | – | > 100 µM | – | > 100 µM | – | > 100 µM
